Data on 4 compounds can be found in article PMC3914206.

Holding throughout (assay type): binding
Parameters in all cases: KINOMEscan: ABL1(F317L)-phosphorylated / KINOMEscan: ABL1(H396P)-nonphosphorylated / KINOMEscan: ABL1(H396P)-phosphorylated / KINOMEscan: ABL1(M351T)-phosphorylated / KINOMEscan: ABL1(T315I)-phosphorylated / KINOMEscan: ABL1-nonphosphorylated / KINOMEscan: ABL1-phosphorylated / KINOMEscan: ACVR2A / KINOMEscan: ACVR2B / KINOMEscan: ADCK3 / KINOMEscan: ADCK4 / KINOMEscan: AKT1 / KINOMEscan: AKT3 / KINOMEscan: ALK / KINOMEscan: ARK5 / KINOMEscan: AURKA / KINOMEscan: AURKC / KINOMEscan: BIKE / KINOMEscan: BMPR1A / KINOMEscan: BMPR1B / KINOMEscan: BMX / KINOMEscan: BRK / KINOMEscan: BRSK1 / KINOMEscan: BRSK2 / KINOMEscan: CAMK1 / KINOMEscan: CAMK1D / KINOMEscan: CAMK1G / KINOMEscan: CAMK2A / KINOMEscan: CAMK2B / KINOMEscan: AAK1 / KINOMEscan: CAMK2D / KINOMEscan: CAMK2G / KINOMEscan: ABL1(F317I)-nonphosphorylated / KINOMEscan: ABL1(F317I)-phosphorylated / KINOMEscan: ABL1(F317L)-nonphosphorylated: unit: % Ctrl
Common to all, as to details: Compound Concentration 10 µM

Assay [1] has as its target T1, panel of 442 kinases (Homo sapiens, UniProt O60285).
T1 construct: purchased KINOMEscan
T1 sequence (O60285 1-661): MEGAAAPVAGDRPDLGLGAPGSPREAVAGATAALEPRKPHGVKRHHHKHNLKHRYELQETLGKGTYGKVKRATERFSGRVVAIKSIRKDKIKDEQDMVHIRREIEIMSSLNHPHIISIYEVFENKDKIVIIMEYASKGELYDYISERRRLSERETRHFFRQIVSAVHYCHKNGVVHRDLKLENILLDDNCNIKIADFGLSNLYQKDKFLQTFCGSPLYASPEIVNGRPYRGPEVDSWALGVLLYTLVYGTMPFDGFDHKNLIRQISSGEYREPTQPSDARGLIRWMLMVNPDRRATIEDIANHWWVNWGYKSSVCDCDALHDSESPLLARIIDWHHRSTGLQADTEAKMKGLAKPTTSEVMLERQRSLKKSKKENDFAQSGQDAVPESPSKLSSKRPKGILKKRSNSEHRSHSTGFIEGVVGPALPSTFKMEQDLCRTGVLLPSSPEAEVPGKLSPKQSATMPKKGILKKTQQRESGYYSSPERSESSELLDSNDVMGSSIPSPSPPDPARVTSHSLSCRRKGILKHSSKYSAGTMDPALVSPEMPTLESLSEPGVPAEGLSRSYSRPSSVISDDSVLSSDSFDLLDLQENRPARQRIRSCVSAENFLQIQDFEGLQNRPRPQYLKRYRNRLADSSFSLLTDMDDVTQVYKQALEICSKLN
The text has this: (§1) We assessed the selectivity of members of this scaffold using the KINOMEscan methodology across a near comprehensive panel of 442 kinases [[18,27]].

Assay [2] has as its target T2, panel of 442 kinases (Homo sapiens, UniProt Q02779).
T2 construct: purchased KINOMEscan
Excerpt: as §1

Assay [3] deals with T3, panel of 442 kinases (Homo sapiens, UniProt Q15375).
T3 construct: purchased KINOMEscan
Excerpt: as §1

T2 sequence (Q02779 whole entry): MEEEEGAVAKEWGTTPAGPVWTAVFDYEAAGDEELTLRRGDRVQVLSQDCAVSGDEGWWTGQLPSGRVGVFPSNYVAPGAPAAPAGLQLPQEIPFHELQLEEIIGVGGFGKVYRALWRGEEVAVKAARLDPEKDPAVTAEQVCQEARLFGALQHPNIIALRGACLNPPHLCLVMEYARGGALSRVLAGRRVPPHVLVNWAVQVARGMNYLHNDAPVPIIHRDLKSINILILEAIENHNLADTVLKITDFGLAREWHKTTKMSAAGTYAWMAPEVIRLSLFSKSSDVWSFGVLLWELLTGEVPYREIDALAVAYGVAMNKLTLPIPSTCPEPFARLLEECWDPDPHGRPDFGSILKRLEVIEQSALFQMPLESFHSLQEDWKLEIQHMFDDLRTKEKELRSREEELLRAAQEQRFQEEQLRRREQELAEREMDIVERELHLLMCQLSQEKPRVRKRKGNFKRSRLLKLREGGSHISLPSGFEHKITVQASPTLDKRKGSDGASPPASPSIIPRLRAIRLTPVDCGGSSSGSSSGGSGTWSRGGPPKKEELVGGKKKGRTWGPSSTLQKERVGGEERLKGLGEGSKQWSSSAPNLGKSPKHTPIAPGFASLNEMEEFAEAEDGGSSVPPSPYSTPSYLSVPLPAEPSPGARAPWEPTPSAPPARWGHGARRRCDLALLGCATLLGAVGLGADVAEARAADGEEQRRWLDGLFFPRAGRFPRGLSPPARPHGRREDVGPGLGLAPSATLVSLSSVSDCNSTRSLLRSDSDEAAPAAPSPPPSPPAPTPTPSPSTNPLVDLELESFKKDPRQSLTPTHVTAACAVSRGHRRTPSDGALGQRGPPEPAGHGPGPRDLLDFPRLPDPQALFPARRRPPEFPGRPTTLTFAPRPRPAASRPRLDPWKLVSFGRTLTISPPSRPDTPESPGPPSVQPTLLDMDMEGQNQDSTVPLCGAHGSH
T3 sequence (Q15375 28-998): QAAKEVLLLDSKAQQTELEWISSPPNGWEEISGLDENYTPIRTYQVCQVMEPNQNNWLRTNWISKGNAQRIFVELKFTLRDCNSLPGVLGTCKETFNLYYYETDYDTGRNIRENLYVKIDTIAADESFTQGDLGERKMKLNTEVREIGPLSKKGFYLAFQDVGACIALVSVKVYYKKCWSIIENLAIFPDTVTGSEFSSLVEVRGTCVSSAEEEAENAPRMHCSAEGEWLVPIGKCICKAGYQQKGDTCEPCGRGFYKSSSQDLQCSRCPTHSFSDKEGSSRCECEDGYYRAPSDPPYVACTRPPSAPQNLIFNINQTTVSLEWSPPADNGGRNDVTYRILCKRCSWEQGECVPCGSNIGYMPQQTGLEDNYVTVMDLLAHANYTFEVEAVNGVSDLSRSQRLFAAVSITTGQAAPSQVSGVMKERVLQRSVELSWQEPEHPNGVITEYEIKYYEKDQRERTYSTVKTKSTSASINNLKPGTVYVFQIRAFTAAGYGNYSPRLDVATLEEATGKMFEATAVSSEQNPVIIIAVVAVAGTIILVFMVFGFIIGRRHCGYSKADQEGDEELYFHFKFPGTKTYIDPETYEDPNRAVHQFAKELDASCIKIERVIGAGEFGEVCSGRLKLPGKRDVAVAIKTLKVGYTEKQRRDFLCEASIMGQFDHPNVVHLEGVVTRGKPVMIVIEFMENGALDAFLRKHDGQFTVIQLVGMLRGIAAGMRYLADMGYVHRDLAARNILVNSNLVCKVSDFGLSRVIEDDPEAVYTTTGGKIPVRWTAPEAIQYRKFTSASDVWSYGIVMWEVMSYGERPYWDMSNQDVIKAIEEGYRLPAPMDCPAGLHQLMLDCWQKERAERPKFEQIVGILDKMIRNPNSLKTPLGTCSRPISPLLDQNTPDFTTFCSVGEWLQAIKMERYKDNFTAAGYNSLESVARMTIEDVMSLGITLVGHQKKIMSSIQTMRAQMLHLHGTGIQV

Turning to `COc1cc(C(=O)N2CCC(N3CCN(C)CC3)CC2)ccc1Nc1ncc2c(n1)N(C)c1ccccc1C(=O)N2C` [15 (LRRK2-IN-1)], the “KINOMEscan: ARK5” value at panel of 442 kinases [1] is 47. In addition, the “KINOMEscan: MLK2” value at panel of 442 kinases [2] is recorded as 100. Besides, the “KINOMEscan: EPHA7” value on panel of 442 kinases [3] is recorded as 97.

For the compound `COc1cc(C(=O)N2CCC(N3CCN(C)CC3)CC2)ccc1Nc1ncc2c(n1)N1CCc3cccc(c31)C(=O)N2C` [Compound 24], the “KINOMEscan: ARK5” value at panel of 442 kinases [1] worked out at 68. The “KINOMEscan: MLK2” value at panel of 442 kinases [2] is given as 98.

Consider `COc1cc(C(=O)N2CCC(N3CCN(C)CC3)CC2)ccc1Nc1ncc2c(n1)N(C1CCCC1)c1ccccc1C(=O)N2C` [Compound 25, 11-cyclopentyl-2-((2-methoxy-4-(4-(4-methylpiperazin-1-yl)piperidine-1-carbonyl)phenyl)amino)-5-methyl-5H-benzo[e]pyrimido[5,4-b][1,4]diazepin-6(11H)-one], for which the “KINOMEscan: ARK5” value at panel of 442 kinases [1] was determined as 90. Further, the “KINOMEscan: MLK2” value on panel of 442 kinases [2] is listed as 96. Besides, the “KINOMEscan: EPHA7” value at panel of 442 kinases [3] is 99.

Turning to `CCOc1cc(C(=O)N2CCC(N3CCN(C)CC3)CC2)ccc1Nc1ncc2c(n1)N(C1CCCC1)c1ccccc1C(=O)N2C` [Compound 26], the “KINOMEscan: ARK5” value at panel of 442 kinases [1] amounted to 100. The “KINOMEscan: MLK2” value on panel of 442 kinases [2] was 100. For the same compound, at panel of 442 kinases [3], the “KINOMEscan: EPHA7” value was 100.
